PubChem BioAssay (NCI)
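Following 48 hours of exposure in 96-well plates, responses at five concentrations were used to interpolate endpoints linearly. The concentration for 50% growth inhibition is given as GI50. The concentration for full growth arrest is given as TGI.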

How the values were obtained:
Assay in all cases: growth of human tumour cells (NCI), 48 h
[1] = test system: SNB-75 CNS
[2] = test system: SK-MEL-28 melanoma
[3] = test system: A498 renal
[4] = test system: HS 578T breast
[5] = test system: SK-MEL-5 melanoma
[6] = test system: OVCAR-5 ovarian
[7] = test system: UO-31 renal
[8] = test system: NCI/ADR-RES ovarian
[9] = test system: DU-145 prostate
[10] = test system: OVCAR-4 ovarian
[11] = test system: NCI-H460 lung
[12] = test system: UACC-62 melanoma
[13] = test system: SK-MEL-2 melanoma
[14] = test system: SF-539 CNS
[15] = test system: KM12 colon
[16] = test system: PC-3 prostate
[17] = test system: SNB-19 CNS
[18] = test system: NCI-H23 lung
[19] = test system: HL-60(TB) leukemia
[20] = test system: SK-OV-3 ovarian
[21] = test system: MCF7 breast
[22] = test system: BT-549 breast
[23] = test system: SF-295 CNS
[24] = test system: MDA-MB-435
[25] = test system: ACHN renal
[26] = test system: COLO 205 colon
[27] = test system: SF-268 CNS
[28] = test system: OVCAR-3 ovarian
[29] = test system: EKVX NSCLC
[30] = test system: T-47D breast
[31] = test system: K-562 leukemia
[32] = test system: CAKI-1 renal
[33] = test system: RXF 393 renal
[34] = test system: HCC-2998 colon
[35] = test system: SW-620 colon
[36] = test system: RPMI-8226 leukemia
[37] = test system: SR leukemia
[38] = test system: TK-10 renal
[39] = test system: MALME-3M melanoma
[40] = test system: HT29 colon
[41] = test system: IGROV1 ovarian
[42] = test system: NCI-H522 lung
[43] = test system: MOLT-4 leukemia
[44] = test system: HCT-15 colon
[45] = test system: U251 CNS
[46] = test system: HOP-92 NSCLC
[47] = test system: UACC-257 melanoma
[48] = test system: M14 melanoma
[49] = test system: OVCAR-8 ovarian
[50] = test system: HCT-116 colon
[51] = test system: SN12C renal
[52] = test system: HOP-62 NSCLC
[53] = test system: LOX IMVI melanoma
[54] = test system: 786-0 renal
[55] = test system: A549 NSCLC
[56] = test system: MDA-MB-231 breast
[57] = test system: NCI-H226 lung
[58] = test system: CCRF-CEM leukemia

Structure (SMILES): NCCNc1c2c(c(NCCN)c3[nH]ccc13)C(=O)c1ccccc1C2=O
- GI50 [1]: 317 nM
- TGI [1]: 945 nM
- GI50 [2]: 439 nM
- TGI [2]: 1800 nM
- GI50 [3]: 231 nM
- TGI [3]: 565 nM
- GI50 [4]: 12 nM
- TGI [4]: 219 nM
- GI50 [5]: 178 nM
- TGI [5]: 808 nM
- GI50 [6]: 279 nM
- TGI [6]: 960 nM
- GI50 [7]: 13800 nM
- TGI [7]: > 60000 nM
- GI50 [8]: 13300 nM
- TGI [8]: 29600 nM
- GI50 [9]: 694 nM
- TGI [9]: 2400 nM
- GI50 [10]: 296 nM
- TGI [10]: 1340 nM
- GI50 [11]: 766 nM
- TGI [11]: 2880 nM
- GI50 [12]: 84.2 nM
- TGI [12]: 372 nM
- GI50 [13]: 785 nM
- TGI [13]: 2410 nM
- GI50 [14]: 44.4 nM
- TGI [14]: 885 nM
- GI50 [15]: 191 nM
- TGI [15]: 957 nM
- GI50 [16]: 631 nM
- TGI [16]: 2450 nM
- GI50 [17]: 206 nM
- TGI [17]: 1120 nM
- GI50 [18]: 74.1 nM
- TGI [18]: 475 nM
- GI50 [19]: 132 nM
- TGI [19]: 470 nM
- GI50 [20]: 790 nM
- TGI [20]: 5520 nM
- GI50 [21]: 29 nM
- TGI [21]: 323 nM
- GI50 [22]: 1220 nM
- TGI [22]: 2620 nM
- GI50 [23]: < 34.1 nM
- TGI [23]: 352 nM
- GI50 [24]: 225 nM
- TGI [24]: 692 nM
- GI50 [25]: 124 nM
- TGI [25]: 706 nM
- GI50 [26]: 280 nM
- TGI [26]: 5800 nM
- GI50 [27]: 170 nM
- TGI [27]: 662 nM
- GI50 [28]: < 48.9 nM
- TGI [28]: 251 nM
- GI50 [29]: 1250 nM
- TGI [29]: 3910 nM
- GI50 [30]: 1630 nM
- TGI [30]: > 100000 nM
- GI50 [31]: 118 nM
- TGI [31]: 1140 nM
- GI50 [32]: < 42 nM
- TGI [32]: 777 nM
- GI50 [33]: 48.8 nM
- TGI [33]: 525 nM
- GI50 [34]: < 10 nM
- TGI [34]: 93 nM
- GI50 [35]: 216 nM
- TGI [35]: 1090 nM
- GI50 [36]: 278 nM
- TGI [36]: 1210 nM
- GI50 [37]: 52.7 nM
- TGI [37]: 334 nM
- GI50 [38]: 145 nM
- TGI [38]: 682 nM
- GI50 [39]: 177 nM
- TGI [39]: 658 nM
- GI50 [40]: 52.7 nM
- TGI [40]: 634 nM
- GI50 [41]: 1200 nM
- TGI [41]: > 100000 nM
- GI50 [42]: 1900 nM
- TGI [42]: > 100000 nM
- GI50 [43]: < 10 nM
- TGI [43]: 43.7 nM
- GI50 [44]: 845 nM
- TGI [44]: 14800 nM
- TGI [45]: 842 nM
- GI50 [46]: 427 nM
- TGI [46]: 4210 nM
- GI50 [47]: 2630 nM
- TGI [47]: 7500 nM
- GI50 [48]: 1450 nM
- TGI [48]: 2760 nM
- GI50 [49]: 151 nM
- TGI [49]: 612 nM
- GI50 [50]: < 26.1 nM
- TGI [50]: 401 nM
- GI50 [51]: 97.8 nM
- TGI [51]: 994 nM
- TGI [52]: 624 nM
- GI50 [53]: 11.1 nM
- TGI [53]: 242 nM
- GI50 [54]: 224 nM
- TGI [54]: 1040 nM
- GI50 [55]: 630 nM
- TGI [55]: 2530 nM
- GI50 [56]: 109 nM
- TGI [56]: 605 nM
- GI50 [57]: 198 nM
- TGI [57]: 896 nM
- GI50 [58]: < 10 nM
- TGI [58]: 163 nM
